Test [1] has as its system Acinetobacter baumannii/haemolyticus, multidrug-resistant clinical isolate (AB-3167). Nature of the test: MIC determination (CLSI), AB-3167. Format: cell-based. The following applies: lower of duplicate values. How it is done: (§1) B) MIC determinations: The in vitro antibacterial activity of parent compounds of those described in the Examples was evaluated by minimum inhibitory concentration (MIC) testing according to Clinical and Laboratory Standards Institute (CLSI). See: Clinical and Laboratory Standards Institute. Methods for Dilution Antimicrobial Susceptibility Tests for Bacteria that Grow Aerobically; Approved Standard-Eighth Edition. CLSI document M7-A8 [ISBN 1-56238-689-1]. Clinical and Laboratory Standards Institute, 940 West Valley Road, Suite 1400, Wayne, Pa. 19087-1898 USA, 2006; also Clinical and Laboratory Standards Institute. Performance Standards for Antimicrobial Susceptibility Testing; Twentieth Informational Supplement. CLSI document M100-S20 [ISBN1-56238-716-2]. Clinical and Laboratory Standards Institute.
(§2) The MIC determination is a standard laboratory method for evaluating the antibacterial activity of a compound. The MIC represents the lowest drug concentration that inhibits visible growth of bacteria following overnight incubation. […] Typically, the drug concentration range is broken down into 2-fold increments (e.g. 0.06 μg/mL, 0.12 μg/mL. 0.25 μg/mL, 0.50 μg/mL, 1.0 μg/mL, etc.) and the various drug concentrations are all individually incubated overnight with approximately the same number of bacteria. The MIC is then determined by visually inspecting the drug effect at each concentration, and identifying the lowest drug concentration that has inhibited bacterial growth as compared to the drug free control. Typically, bacteria continue to grow at drug concentrations lower than the MIC and don't grow at concentrations at and above the MIC.
(§3) The MIC values described in Table 2 below were derived from assays wherein each test compound was evaluated in duplicate. In cases where the duplicate values varied by 0-2-fold, the lower of the two values was reported below. Generally speaking, if the duplicate values varied by more than 2-fold, the assay was considered non-valid and was repeated until the variation between duplicate runs was <2-fold. In line with the CLSI guidelines referred to above, both control organisms and reference compounds were utilized in each MIC assay to provide proper quality control. MIC values generated with these control organisms and reference compounds were required to fall within a defined range for the assay to be considered valid and be included herein. Those skilled in the art will recognize that MIC values can and do vary from experiment to experiment. […] While a single MIC is reported for each compound and each microorganism, the reader should not conclude that each compound was only tested once. Several of the compounds were subjected to multiple tests. The data reported in Table 2 is reflective of the compounds relative activity and different MICs may have been generated on these occasions in line with the guidelines described above.
(§4) The following bacterial strains were used in these MIC determinations:
2) Acinetobacter baumannii/haemolyticus: Multidrug-resistant clinical isolate labeled as AB-3167 in Table 2;

Test [2] relates to Escherichia coli EC-1: VOGEL, mouse virulent. Nature of the test: MIC determination (CLSI), EC-1. It counts as cell-based. The following applies: read-out: EC-1 MIC. Here is the method: as §1, §2, §3, §4
3) Escherichia coli EC-1: VOGEL, mouse virulent labeled as EC-1 in Table 2;

In test [3] the test system is Pseudomonas aeruginosa UI-18, wild-type (PA-7). Nature of the test: MIC determination (CLSI), PA-7. It counts as cell-based. The conditions noted are these: lower of duplicate values. How it is done: as §1, §2, §3, §4
1) Pseudomonas aeruginosa UI-18: Wild-type, labeled as PA-7 in Table 2;

For test [4], the target named is T1, Pseudomonas aeruginosa LpxC enzyme (Pseudomonas aeruginosa, UniProt P47205).
T1 construct: made in house; host or cells: E. coli
Nature of the test: IC50 assay, LpxC enzyme from P. aeruginosa (PA LpxC enzyme IC50). Format: biochemical. The following applies: P. aeruginosa LpxC 0.1 nM, 25° C., 1 hour, pH 8.0. Here is the method:
In order to assess the compounds biological activity, selected in vitro assays were conducted on selected compounds. One of the assays measured the compounds ability to disrupt the synthesis of lipopolysaccharide, LPS, which is a component of the outer membrane of Gram-negative bacteria. Disruption of this synthesis is lethal to the bacteria. The assay determined the compound's ability to inhibit LpxC, which is the first enzyme in the biosynthetic pathway for LPS (measured as IC50). Additionally, MICs (minimal inhibitory concentrations) were determined for several bacteria. The specific protocols are described below:
A) IC50 Assay, LpxC Enzyme from P. aeruginosa (Labeled as PA LpxC Enzyme IC50):
At the end of 1 hour, 5 ul of 1 N HCl was added to stop the enzyme reaction, the plates were centrifuged, and then processed with the BioTrove Rapidfire HTMS Mass Spectrometry System. A no-enzyme control was used in calculating the IC50 values from the percent conversion values.

Consider 5 compounds from patent publication US20210017206A1, “PYRIDINONE AND PYRIMIDINONE PHOSPHATES AND BORONATES USEFUL AS ANTIBACTERIAL AGENTS” (Pfizer Inc., priority 2018, published 2021).

The structures appear in SMILES notation. ≈ marks a conversion by molar mass, not a printed value.

T1 sequence (P47205 whole entry): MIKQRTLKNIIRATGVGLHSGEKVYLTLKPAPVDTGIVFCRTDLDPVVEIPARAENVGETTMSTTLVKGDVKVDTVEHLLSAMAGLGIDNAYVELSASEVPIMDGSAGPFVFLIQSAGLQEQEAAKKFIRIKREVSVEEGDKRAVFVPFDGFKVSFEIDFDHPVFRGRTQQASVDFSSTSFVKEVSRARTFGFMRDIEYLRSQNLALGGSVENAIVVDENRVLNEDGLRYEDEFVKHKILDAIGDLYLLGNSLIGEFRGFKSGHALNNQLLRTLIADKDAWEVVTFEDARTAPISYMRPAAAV

Usually MIC stands for the least concentration at which growth counts as inhibited. Consider `C[C@@](CCn1cnc(-c2ccc(-n3nccn3)cc2)cc1=O)(C(=O)NO)S(C)(=O)=O` [(2R)-N-hydroxy-2-methyl-2-(methylsulfonyl)-4-{6-oxo-4-[4-(2H-1,2,3-triazol-2-yl)phenyl]pyrimidin-1(6H)-yl}butanamide], for which the MIC was over 64 µg/mL in test [1], 0.06 µg/mL (≈ 0.139 µM) in test [2] and 0.5 µg/mL (≈ 1.16 µM) in test [3].
For the compound `C[C@@](CCn1ccc(-c2ccc(-n3nccn3)cc2)cc1=O)(C(=O)NO)S(C)(=O)=O` [(R)-4-(4-(4-(2H-1,2,3-Triazol-2-yl)phenyl)-2-oxopyridin-1(2H)-yl)-N-hydroxy-2-methyl-2-(methylsulfonyl)butanamide], the minimal inhibitory concentration (MIC) in test [1] is over 64 µg/mL; in test [2], 0.06 µg/mL (≈ 0.139 µM); in test [3], 0.5 µg/mL (≈ 1.16 µM).
The term IC50 denotes the concentration that gives 50% inhibition. Low readings indicate higher potency, high ones lower potency. For the compound `COc1ccc(-c2ccn(CC[C@](C)(C(=O)NO)S(C)(=O)=O)c(=O)c2)c(F)c1F` [(2R)-4-[4-(2,3-difluoro-4-methoxyphenyl)-2-oxopyridin-1(2H)-yl]-N-hydroxy-2-methyl-2-(methylsulfonyl)butanamide], in test [4], the IC50 turned out to be 166 pM. For the same compound, the MIC in test [1] is over 64 µg/mL; in test [2], 0.015 µg/mL (≈ 0.0348 µM); in test [3], 1 µg/mL (≈ 2.32 µM).
The matching figures for `C[C@@](CCn1ccc(-c2ccc(-c3nccs3)cc2)cc1=O)(C(=O)NO)S(C)(=O)=O` [(2R)-N-hydroxy-2-methyl-2-(methylsulfonyl)-4-{2-oxo-4-[4-(1,3-thiazol-2-yl)phenyl]pyridin-1(2H)-yl}butanamide]: 176 pM, over 64 µg/mL, 0.06 µg/mL (≈ 0.134 µM) and 0.5 µg/mL (≈ 1.12 µM).
Taken in the same sequence, the figures for `COc1cnn(-c2ccc(-c3ccn(CC[C@](C)(C(=O)NO)S(C)(=O)=O)c(=O)c3)cc2)n1` [(2R)-N-hydroxy-4-{4-[4-(4-methoxy-2H-1,2,3-triazol-2-yl)phenyl]-2-oxopyridin-1(2H)-yl}-2-methyl-2-(methylsulfonyl)butanamide] were 125 pM, over 64 µg/mL, 0.03 µg/mL (≈ 0.065 µM) and 0.5 µg/mL (≈ 1.08 µM).
